Measurements from US10294202B2, “Pyrrolidinones as herbicides” (FMC Corporation, priority 2013, dated 2019).

What was measured:
sedge, umbrella = assay: Test B flooded paddy test; assay type: in vivo, Cyperus difformis; details: 500 g ai/ha, Flood; scale of 0 to 100 where 0 is no effect and 100 is complete control
Procedure, shortened: (§1)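 Plants grown to 2-leaf stage; pots flooded 3 cm above soil and compound applied directly into paddy water, depth held throughout. Visual rating against untreated controls after 13 to 15 days in greenhouse, 0 (no effect) to 100 (complete control).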

rice = assay: Test B flooded paddy test; assay type: in vivo, Oryza sativa; details: 500 g ai/ha, Flood; scale of 0 to 100 where 0 is no effect and 100 is complete control
Procedure, shortened: as §1

wheat = assay: Test A pre-/postemergence herbicide test; assay type: in vivo, Triticum aestivum; details: Postemergence
Procedure, shortened: (§2)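 Greenhouse pot test with pre- and postemergence application of surfactant-containing solvent formulations. Postemergence plants were 2–10 cm, one- to two-leaf stage. Response scored visually after ~10 days, 0 (no effect) to 100 (complete control).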

pigweed = assay: Test A pre-/postemergence herbicide test; assay type: in vivo, Amaranthus retroflexus
Procedure, shortened: as §2

ryegrass, Italian = assay: Test A pre-/postemergence herbicide test; assay type: in vivo, Lolium multiflorum
Procedure, shortened: as §2

corn = assay: Test A pre-/postemergence herbicide test; assay type: in vivo, Zea mays; details: Postemergence
Procedure, shortened: as §2

barnyardgrass [1] = assay: Test B flooded paddy test; assay type: in vivo, Echinochloa crus-galli; details: 500 g ai/ha, Flood; scale of 0 to 100 where 0 is no effect and 100 is complete control
Procedure, shortened: as §1

kochia = assay: Test A pre-/postemergence herbicide test; assay type: in vivo, Kochia scoparia
Procedure, shortened: as §2

blackgrass = assay: Test A postemergence herbicide test; assay type: in vivo, Alopecurus myosuroides
Procedure, shortened: (§3)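 Blackgrass and galium grown in pots of loam soil–sand blend, treated postemergence at 2–10 cm height, one- to two-leaf stage. Plants kept in greenhouse ~10 days, then visually rated for injury against untreated controls on a 0–100 scale (0 no effect, 100 complete control).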

giant foxtail = assay: Test A pre-/postemergence herbicide test; assay type: in vivo, Setaria faberii
Procedure, shortened: as §2

ragweed = assay: Test A pre-/postemergence herbicide test; assay type: in vivo, Ambrosia elatior
Procedure, shortened: as §2

ducksalad = assay: Test B flooded paddy test; assay type: in vivo, Heteranthera limosa; details: 500 g ai/ha, Flood; scale of 0 to 100 where 0 is no effect and 100 is complete control
Procedure, shortened: as §1

galium = assay: Test A postemergence herbicide test; assay type: in vivo, Galium aparine
Procedure, shortened: as §3

barnyardgrass [2] = assay: Test A pre-/postemergence herbicide test; assay type: in vivo, Echinochloa crus-galli
Procedure, shortened: as §2

[3] = 125 g ai/ha, 0 to 100 scale, 0 is no effect, 100 is complete control
[4] = 500 g ai/ha, 0 to 100 scale (0 no effect, 100 complete control)
[5] = 125 g ai/ha, visual rating, 0 to 100 scale, 0 no effect, 100 complete control, approximately 10 days, preemergence
[6] = Postemergence, 125 g ai/ha, 0 to 100 scale, 0 is no effect, 100 is complete control
[7] = Postemergence, 500 g ai/ha, 0 to 100 scale (0 no effect, 100 complete control)
[8] = preemergence, 500 g ai/ha, 0 to 100 scale, 0 is no effect and 100 is complete control
[9] = 125 g ai/ha, visual rating on 0 to 100 scale (0 no effect, 100 complete control), approx. 10 days
[10] = Postemergence, 125 g ai/ha, visual rating on 0 to 100 scale (0 no effect, 100 complete control), approx. 10 days
[11] = Preemergence, 125 g ai/ha, 0 to 100 scale where 0 is no effect and 100 is complete control
[12] = Preemergence, 500 g ai/ha, visual rating on 0 to 100 scale (0 no effect, 100 complete control)

| SMILES | Plant response rating, Sedge, Umbrella (sedge, umbrella) | Plant response rating, Rice (rice) | Plant response rating, Wheat (wheat; [4]) | Plant response rating, Pigweed (pigweed; [7]) | Plant response rating, Pigweed (pigweed; [8]) | Plant response rating, Ryegrass, Italian (ryegrass, Italian; [7]) | Plant response rating, Corn (corn; [4]) | Plant response rating, Barnyardgrass (barnyardgrass [1]) | Plant response rating, Kochia (kochia; [7]) | Plant response rating, Kochia (kochia; [8]) | Plant response rating, Blackgrass (blackgrass; [4]) | Plant response rating, Foxtail, Giant (giant foxtail; [7]) | Plant response rating, Foxtail, Giant (giant foxtail; [8]) | Plant response rating, Ragweed (ragweed; [7]) | Plant response rating, Ragweed (ragweed; [8]) | Plant response rating, Ducksalad (ducksalad) | Plant response rating, Galium (galium; [4]) | Plant response rating, Barnyardgrass (barnyardgrass [2]; [7]) | Plant response rating, Barnyardgrass (barnyardgrass [2]; [8]) | Plant response rating, Wheat (wheat; [9]) | further results |
| --- | --- | --- | --- | --- | --- | --- | --- | --- | --- | --- | --- | --- | --- | --- | --- | --- | --- | --- | --- | --- | --- |
| O=C1NCC(c2ccc(F)cc2)C1C(=O)Nc1ccccc1F (stereo not drawn) [Compound 239] | 0 | 0 | 20 | 0 | 0 | 20 | 0 | 50 | 20 | 70 | 20 | 90 | 90 | 0 | 90 | 100 | 30 | 90 | 90 | – | Plant response rating, Wheat (wheat; [3]): 0; Plant response rating, Pigweed (pigweed; [5]): 0; Plant response rating, Pigweed (pigweed; [6]): 0; Plant response rating, Ryegrass, Italian (ryegrass, Italian; [5]): 0; Plant response rating, Ryegrass, Italian (ryegrass, Italian; [6]): 0; Plant response rating, Ryegrass, Italian (ryegrass, Italian; [8]): 0; Plant response rating, Corn (corn; [3]): 0; Plant response rating, Kochia (kochia; [5]): 0; Plant response rating, Kochia (kochia; [6]): 0; Plant response rating, Blackgrass (blackgrass; [3]): 20; Plant response rating, Foxtail, Giant (giant foxtail; [5]): 80; Plant response rating, Foxtail, Giant (giant foxtail; [6]): 50; Plant response rating, Ragweed (ragweed; [5]): 0; Plant response rating, Ragweed (ragweed; [6]): 0; Plant response rating, Galium (galium; [3]): 0; Plant response rating, Barnyardgrass (barnyardgrass [2]; [5]): 50; Plant response rating, Barnyardgrass (barnyardgrass [2]; [6]): 50 |
| CC(C)N1CC(c2ccc(F)cc2)C(C(=O)Nc2cccc(F)c2F)C1=O (stereo not drawn) [Compound 276] | 0 | 0 | 0 | 0 | 0 | 0 | 0 | 0 | 0 | 0 | 0 | 0 | 0 | 0 | 0 | 30 | 0 | 0 | 0 | 0 | Plant response rating, Pigweed (pigweed; [10]): 0; Plant response rating, Pigweed (pigweed; [11]): 0; Plant response rating, Ryegrass, Italian (ryegrass, Italian; [10]): 0; Plant response rating, Ryegrass, Italian (ryegrass, Italian; [11]): 0; Plant response rating, Ryegrass, Italian (ryegrass, Italian; [8]): 0; Plant response rating, Corn (corn; [3]): 0; Plant response rating, Kochia (kochia; [6]): 0; Plant response rating, Kochia (kochia; [11]): 0; Plant response rating, Blackgrass (blackgrass; [3]): 0; Plant response rating, Foxtail, Giant (giant foxtail; [6]): 0; Plant response rating, Foxtail, Giant (giant foxtail; [11]): 0; Plant response rating, Ragweed (ragweed; [10]): 0; Plant response rating, Ragweed (ragweed; [11]): 0; Plant response rating, Galium (galium; [3]): 0; Plant response rating, Barnyardgrass (barnyardgrass [2]; [6]): 0; Plant response rating, Barnyardgrass (barnyardgrass [2]; [11]): 0 |
| O=C1NCC(c2ccc(Cl)o2)C1C(=O)Nc1ccccc1F (stereo not drawn) [Compound 284] | 0 | 10 | 0 | 0 | 40 | 0 | 0 | 0 | 0 | 30 | 0 | 10 | 70 | 0 | 0 | 80 | 60 | 50 | 60 | 0 | Plant response rating, Pigweed (pigweed; [10]): 0; Plant response rating, Pigweed (pigweed; [11]): 0; Plant response rating, Ryegrass, Italian (ryegrass, Italian; [10]): 0; Plant response rating, Ryegrass, Italian (ryegrass, Italian; [11]): 0; Ryegrass, Italian plant response rating (ryegrass, Italian; [12]): 0; Plant response rating, Corn (corn; [9]): 0; Plant response rating, Kochia (kochia; [10]): 0; Plant response rating, Kochia (kochia; [11]): 0; Plant response rating, Blackgrass (blackgrass; [9]): 0; Plant response rating, Foxtail, Giant (giant foxtail; [10]): 0; Plant response rating, Foxtail, Giant (giant foxtail; [11]): 40; Plant response rating, Ragweed (ragweed; [10]): 0; Plant response rating, Ragweed (ragweed; [11]): 0; Plant response rating, Galium (galium; [9]): 0; Plant response rating, Barnyardgrass (barnyardgrass [2]; [10]): 0; Plant response rating, Barnyardgrass (barnyardgrass [2]; [11]): 0 |
| O=C1NCC(c2ccc(Cl)o2)C1C(=O)Nc1cccc(F)c1F (stereo not drawn) [Compound 285] | 0 | 0 | 0 | 0 | 0 | 0 | 0 | 20 | 0 | 0 | 0 | 0 | 10 | 0 | 0 | 100 | 0 | 70 | 0 | 0 | Plant response rating, Pigweed (pigweed; [10]): 0; Plant response rating, Pigweed (pigweed; [11]): 0; Plant response rating, Ryegrass, Italian (ryegrass, Italian; [10]): 0; Plant response rating, Ryegrass, Italian (ryegrass, Italian; [11]): 0; Ryegrass, Italian plant response rating (ryegrass, Italian; [12]): 0; Plant response rating, Corn (corn; [9]): 0; Plant response rating, Kochia (kochia; [10]): 0; Plant response rating, Kochia (kochia; [11]): 0; Plant response rating, Blackgrass (blackgrass; [9]): 0; Plant response rating, Foxtail, Giant (giant foxtail; [10]): 0; Plant response rating, Foxtail, Giant (giant foxtail; [11]): 0; Plant response rating, Ragweed (ragweed; [10]): 0; Plant response rating, Ragweed (ragweed; [11]): 0; Plant response rating, Galium (galium; [9]): 0; Plant response rating, Barnyardgrass (barnyardgrass [2]; [10]): 20; Plant response rating, Barnyardgrass (barnyardgrass [2]; [11]): 0 |
| O=C1NCC(c2ccc(Cl)c(Cl)c2)C1C(=O)Nc1ccc(F)c(F)c1F (stereo not drawn) [Compound 286] | 0 | 10 | 0 | 0 | 30 | 20 | 0 | 15 | 20 | 40 | 0 | 70 | 80 | 0 | 0 | 75 | 0 | 60 | 60 | 0 | Plant response rating, Pigweed (pigweed; [10]): 0; Plant response rating, Pigweed (pigweed; [11]): 20; Plant response rating, Ryegrass, Italian (ryegrass, Italian; [10]): 0; Plant response rating, Ryegrass, Italian (ryegrass, Italian; [11]): 0; Ryegrass, Italian plant response rating (ryegrass, Italian; [12]): 20; Plant response rating, Corn (corn; [9]): 0; Plant response rating, Kochia (kochia; [10]): 0; Plant response rating, Kochia (kochia; [11]): 30; Plant response rating, Blackgrass (blackgrass; [9]): 0; Plant response rating, Foxtail, Giant (giant foxtail; [10]): 60; Plant response rating, Foxtail, Giant (giant foxtail; [11]): 80; Plant response rating, Ragweed (ragweed; [10]): 0; Plant response rating, Ragweed (ragweed; [11]): 0; Plant response rating, Galium (galium; [9]): 0; Plant response rating, Barnyardgrass (barnyardgrass [2]; [10]): 60; Plant response rating, Barnyardgrass (barnyardgrass [2]; [11]): 60 |
